# Tested on: B. burgdorferi B31
# Assay: RNA-Seq gene expression profile of B. burgdorferi persisters that survived antibiotic treatment, compared with drug free control
# Assay type: cell-based, Borrelia burgdorferi
# Settings: 50 μg/ml antibiotic for 6 days, vs drug free control
# Protocol: RNA Sequencing (RNA-Seq) was performed to determine the gene expression profile of B. burgdorferi persisters that survived antibiotic treatment using next generation sequencing to shed light on the mechanisms of B. burgdorferi persistence. B. burgdorferi B31 cultures were grown for 5 days to 1×10^7 spirochetes/ml in BSK-H medium followed by treatment with 50 μg/ml doxycycline or 50 μg/ml amoxicillin for 6 days. Triplicate biological samples were used for each group. The total RNA was extracted and ribosomal RNA was removed prior to preparation of cDNA libraries for Illumina sequencing. […] The RNA-Seq data was analyzed by BLAST analysis and mapped to KEGG pathways.
compound,measurement,value
"CC1(C)S[C@@H]2[C@H](NC(=O)[C@H](N)c3ccc(O)cc3)C(=O)N2[C@H]1C(=O)O [amoxicillin, reference compound]",genes down-regulated in treated group,174 genes
same,genes upregulated in treated group,342 genes
same,total genes differentially expressed between tolerant persisters and drug free group,516 genes

# Source: US20180246095A1, “COMPOSITIONS AND METHODS FOR DIAGNOSING AND TREATING LYME DISEASE” (priority 2015, published 2018)
